Literature values in patent US6855351B2, “Pesticide formulation containing azadirachtin (not less than 300 ppm) and salanin in a formulated product with neem oil” (T. Stanes and Company Limited, priority 2002, dated 2005).

Test system: mammals
Settings: in vivo

## C/C=C(\C)C(=O)O[C@H]1C[C@@H](OC(C)=O)[C@@]2(C(=O)OC)CO[C@H]3[C@@H](O)[C@@](C)([C@]45O[C@@]4(C)[C@H]4C[C@@H]5O[C@@H]5OC=C[C@@]54O)[C@H]4[C@]1(CO[C@]4(O)C(=O)OC)[C@@H]32 [Azadirachtin]
  mammalian toxicity: no apparent mammalian toxicity
